One series has as its system KIF20A. The series can be described thus: Western blot of KIF20A in Daoy clones with Tet-on shKIF20A726. It counts as cell-based, human. The following applies: three Daoy clones, doxycycline induction of Tet-on shKIF20A726. As to the method: Western Blot: Daoy cell clones stably integrated with Tet-on shKIF20A726 were cultured with or without Doxycycline induction for 3 days. These Daoy cells were washed with PBS, lysed with 2×SDS loading buffer and boiled for 5 minutes. Denatured proteins were resolved by SDS-PAGE and transferred to a PVDF membrane for Western blot detection by KIF20A (L13) antibody (1:500) and HRP-conjugated Donkey anti-Goat second antibody (1:2500) with chemiluminescent substrate (ThermoFisher Scientific, Cat: 34095).
Generation of Daoy cell lines with stably integrated Tet-on inducible shRNA expression system: Daoy cells were infected with lentivirus of Tet-on inducible human KIF20A shRNA-726 and GFP-Luciferase prepared from Tet-pLKO-hushKIF20A726 plasmid and Hiv7CMVGFP-IRES-Luciferase plasmid, respectively. The transduced Daoy cells were selected for stable single clones with Puromycin (1 μg/ml, Sigma-Aldrich) and GFP fluorescence signal in DMEM (Invitrogen) with 10% fetal bovine serum. Single clones were picked up by glass cloning cylinders (Sigma-Aldrich) in 10 cm plate. Three clones were obtained and tested for growth ability and doxycycline (0.5 μg/ml) inducibility using growth curve assay, western blots and luciferase reporter assay system. Clone #2 was selected for further use.

The next series relates to Daoy human MB cells. In words: Growth assay of Daoy cells. The conditions noted are these: three Daoy clones, inducible expression of shKIF20A726 (+Dox). It is filed as cell-based. The procedure:
Generation of Daoy cell lines with stably integrated Tet-on inducible shRNA expression system: Daoy cells were infected with lentivirus of Tet-on inducible human KIF20A shRNA-726 and GFP-Luciferase prepared from Tet-pLKO-hushKIF20A726 plasmid and Hiv7CMVGFP-IRES-Luciferase plasmid, respectively. The transduced Daoy cells were selected for stable single clones with Puromycin (1 μg/ml, Sigma-Aldrich) and GFP fluorescence signal in DMEM (Invitrogen) with 10% fetal bovine serum. Single clones were picked up by glass cloning cylinders (Sigma-Aldrich) in 10 cm plate.
Growth Assay of tumor cells: Mouse MB cell lines, or Daoy clones stably integrated with Tet-on inducible human KIF20A shRNA-726, or Wild Type Daoy cells, were seeded into multiple wells of 24 well plates (2×10^4 or 1×10^4 cells per well). Cells in quadruplicate were then dissociated and counted using a hemocytometer at consecutive days after initial plating.

Series [1] concerns GISC017 cells. The series can be described thus: Flow cytometry-based cell cycle analysis (4N DNA content) of GISC017 cells. The following applies: vs scrambled shRNA. Details: species or system human. An excerpt: To further investigate the relevance of KIF20A in human brain tumors, inhibition of KIF20A in patient-derived GBM-initiating/stem cells (GISCs) was examined. As the ERKS axis functions in different types of brain tumor-initiating/stem cells, data obtained from study of GISCs would be applicable to other brain tumor cell types. Multiple lines of patient-derived GISCs were obtained from Dr. Christine Brown. These low passaged GISCs could be expanded in cultures and could engraft in NSG mice^43, 44. FIG. 11 summarizes the results of testing KIF20A in one GISC line (GISC017) by constitutive expression of a control scrambled shRNA or shKIF20A726 (shRNA targeting hKIF20A) in pNUT vector-based lentiviral expression system. […] In the above cell cycle exit analysis, co-staining of differentiation markers (e.g. βlll-tubulin, DCX, or NeuN) was performed, however, these markers were detected in EdU^+Ki67^− (cells having left the cell cycle) but also in some EdU^+Ki67^+ (cells staying in the cell cycle) cells, which might reflect a technical artefact observed with progenitor/stem cells in culture. […]

Series [2] has as its system GISC017 cells. In words: GISC017 xenograft in brains of NSG mice. It is filed as in vivo. The conditions noted are these: GISC017 clones with Tet-inducible shKIF20A726 in NSG mouse brain, doxycycline treatment. The procedure: FIG. 12a: NSG mice were injected with GISC017 cells stably integrated with Tet-inducible shRNA and luciferase. Treatment with doxycycline started at 10 days after cell implantation (indicated by the red line). FIG. 12b: Survival data of the mice were analyzed by Kaplan-Meier plot.
GISC017 cell clones stably integrated with a Tet-inducible shKIF20A726 and luciferase expression cassette were established.

Entries after “also recorded” stand apart in the source; their conditions may differ.

This note sets out measurements from US20240240189A1, “CANCER TREATMENT BY TARGETING PROTEINS OR INTERACTIONS OF EPHRINB-RGS3-KIF20A-SEPT7 AXIS” (CITY OF HOPE, priority 2021, published 2024).

Turning to “5′-GAGGAGTGTCTACATCGAA-TTCAAGAGA-TTCGATGTAGACACTCCTC-3′ (GAGGAGTGTCTACATCGAATTCAAGAGATTCGATGTAGACACTCCTC; hairpin, further chemistry not given here) [shKIF20A726, shRNA targeting human KIF20A transcript]”, the “KIF20A expression (Western blot)” value with KIF20A is “significant knockdown of KIF20A expression in all three cell clones; also recorded: reduction of KIF20A expression”. For the same substance, the cell proliferation entry with Daoy human MB cells was “significantly inhibit the proliferation of all three clones; also recorded: inhibit cell proliferation”. In addition, the “4N DNA contents / cytokinesis” value in the series on GISC017 cells [1] is on record as “comparable; also recorded: did not cause obvious change in cytokinesis”. For the same substance, in the series with GISC017 cells [2], the animal survival result is on record as “prolong animal survival” and the tumor xenograft growth result was “suppress tumor xenograft growth”.
